Laboratory results reported in patent US11077100B2, “Tetrahydroquinoline derivatives as P2X7 receptor antagonists” (RaQualia Pharma Inc., priority 2017, dated 2021).

Legend:
human P2X7 = human P2X7 (Homo sapiens (Human), UniProt Q99572); assay: Human P2X7 functional assay (Ca2+ influx, Fluo-4, FDSS); assay type: cell-based; settings: antagonistic activity with respect to the human P2X7 receptor; BzATP final concentration 80 microM
Method in brief: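 HEK293 cells stably expressing C-terminally FLAG-tagged human P2X7, loaded with Fluo-4. Compounds were preincubated for 10 min at room temperature, then 80 μM BzATP (final) was added and Ca2+ fluorescence read at 540 nm (480 nm excitation) by FDSS. IC50 values come from 7-point curves, duplicate wells.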

rat P2X7 = rat P2X7 (Rattus norvegicus (Rat), UniProt Q64663); assay: Rat P2X7 functional assay (Ca2+ influx, Fluo-4, FDSS); assay type: cell-based; settings: HEK293 cells stably expressing rat P2X7; BzATP final 10 microM; 7-point dose-response; read-out: Antagonistic activities with respect to the rat P2X7 receptor (IC50)
rat P2X7, sequence (Q64663 whole entry): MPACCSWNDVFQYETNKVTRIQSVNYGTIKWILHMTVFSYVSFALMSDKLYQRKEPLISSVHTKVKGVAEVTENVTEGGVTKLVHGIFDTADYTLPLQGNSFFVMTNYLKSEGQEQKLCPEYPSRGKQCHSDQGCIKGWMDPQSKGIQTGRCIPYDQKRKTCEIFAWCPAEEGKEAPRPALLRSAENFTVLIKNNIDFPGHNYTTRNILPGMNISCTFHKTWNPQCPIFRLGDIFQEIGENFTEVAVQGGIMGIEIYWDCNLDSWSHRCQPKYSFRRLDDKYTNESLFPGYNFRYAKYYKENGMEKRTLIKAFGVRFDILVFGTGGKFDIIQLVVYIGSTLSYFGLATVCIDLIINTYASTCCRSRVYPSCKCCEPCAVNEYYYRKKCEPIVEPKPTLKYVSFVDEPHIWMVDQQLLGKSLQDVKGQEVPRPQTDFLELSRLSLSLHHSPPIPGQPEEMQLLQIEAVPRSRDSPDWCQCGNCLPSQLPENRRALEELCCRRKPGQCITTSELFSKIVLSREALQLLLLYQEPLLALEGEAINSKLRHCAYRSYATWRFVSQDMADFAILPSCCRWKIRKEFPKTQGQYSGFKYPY
Method in brief: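 HEK293 cells stably expressing rat P2X7 (5,000/well, plated 24 h before) loaded with Fluo-4; compounds preincubated 10 min at room temperature, then Ca2+ rise after 10 microM BzATP (final) read on FDSS (480/540 nm). IC50 from 7-point curves, duplicate wells.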

human P2X7, sequence (Q99572 whole entry): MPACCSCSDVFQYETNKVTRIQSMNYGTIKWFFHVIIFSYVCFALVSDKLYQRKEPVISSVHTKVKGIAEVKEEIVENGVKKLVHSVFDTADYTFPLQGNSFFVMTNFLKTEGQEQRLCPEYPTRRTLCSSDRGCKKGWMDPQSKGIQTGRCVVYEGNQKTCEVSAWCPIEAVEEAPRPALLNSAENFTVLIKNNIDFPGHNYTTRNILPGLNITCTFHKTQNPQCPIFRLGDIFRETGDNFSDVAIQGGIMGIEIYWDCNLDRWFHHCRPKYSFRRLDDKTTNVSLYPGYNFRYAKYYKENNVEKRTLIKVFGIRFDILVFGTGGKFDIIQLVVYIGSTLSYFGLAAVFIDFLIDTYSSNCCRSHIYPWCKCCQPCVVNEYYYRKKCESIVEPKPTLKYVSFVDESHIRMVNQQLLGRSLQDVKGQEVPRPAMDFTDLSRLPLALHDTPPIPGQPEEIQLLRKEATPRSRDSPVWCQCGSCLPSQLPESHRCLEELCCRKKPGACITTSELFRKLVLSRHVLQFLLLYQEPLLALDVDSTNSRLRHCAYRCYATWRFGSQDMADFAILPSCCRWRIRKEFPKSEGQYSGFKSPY

| SMILES | IC50 (human P2X7) [nM] | IC50 (rat P2X7) [nM] |
| --- | --- | --- |
| O=C1CC[C@@](F)(C(=O)NCc2ccc(F)cc2Cl)c2cccnc21 [Example 249, (S)-N-(2-chloro-4-fluorobenzyl)-5-fluoro-8-oxo-5,6,7,8-tetra-hydroquinoline-5-carboxamide] | 50 to 100 | < 1000 |
| Cc1cc(Cl)cc(Cl)c1CNC(=O)C1(F)CCC(O)(CN)c2ncccc21 (stereo not drawn) [Example 45, 8-(aminomethyl)-N-(2,4-dichloro-6-methylbenzyl)-5-fluoro-8-hydroxy-5,6,7,8-tetrahydro-quinoline-5-carboxamide] | < 50 | < 1000 |
| O=C(NCc1cccc(C(F)(F)F)c1Cl)[C@@]1(F)CC[C@H](F)c2ncccc21 [Example 352, (5R,8S)-N-(2-chloro-3-(trifluoromethyl)benzyl)-5,8-difluoro-5,6,7,8-tetrahydroquinoline-5-carboxamide] | < 50 | < 1000 |
| O=C1CC[C@@](F)(C(=O)NCc2cccc(Cl)c2Cl)c2cccnc21 [Example 252, (S)-N-(2,3-dichloro-benzyl)-5-fluoro-8-oxo-5,6,7,8-tetrahydroquinoline-5-carboxamide] | < 50 | < 1000 |
| C[C@@H](NC(=O)[C@]1(F)CC[C@H](O)c2ncccc21)c1ccc(F)cc1Cl [Example 237, (5S,8S)-N-((R)-1-(2-chloro-4-fluorophenyl)ethyl)-5-fluoro-8-hydroxy-5,6,7,8-tetrahydroquinoline-5-carboxamide] | < 50 | < 1000 |
| O=C(NCc1ccc(Cl)cc1F)[C@]1(F)CC[C@](O)(CO)c2ncccc21 [Example 315, (5S,8R)-N-(4-chloro-2-fluorobenzyl)-5-fluoro-8-hydroxy-8-(hydroxymethyl)-5,6,7,8-tetrahydroquinoline-5-carboxamide] | 1000 to 3000 | < 1000 |
| O=C(NCc1ccc(F)cc1C(F)(F)F)[C@@H]1CC[C@H](O)c2ncccc21 [Example 76, (5R,8S)-N-(4-fluoro-2-(tri-fluromethyl)benzyl)-8-hydroxy-5,6,7,8-tetra-hydroquinoline-5-carboxamide] | 50 to 100 | < 1000 |
| O=C(NCc1c(Cl)cc(Cl)cc1C(F)F)[C@]1(F)CC[C@@H](O)c2ncccc21 [Example 115] | < 50 | < 1000 |
| C[C@]1(O)CC[C@@](F)(C(=O)NCc2ncc(Cl)cc2Cl)c2cccnc21 [Example 272, (5S,8S)-N-((3,5-dichloropyridin-2-yl)methyl)-5-fluoro-8-hydroxy-8-methyl-5,6,7,8-tetrahydroquinoline-5-carboxamide] | < 50 | < 1000 |
| Cc1cc(Cl)cc(Cl)c1CNC(=O)C1CCC(O)(CN)c2ncccc21 (stereo not drawn) [Example 43, 8-(aminomethyl)-N-(2,4-dichloro-6-meth-ylbenzyl)-8-hydroxy-5,6,7,8-tetrahydroquinoline-5-carboxamide] | < 50 | < 1000 |
| CN(C)CC1(O)CCC(F)(C(=O)NCc2cccc(C(F)(F)F)c2Cl)c2cccnc21 (stereo not drawn) [Example 50, N-(2-chloro-3-(trifluoro-methyl)benzyl)-8-((di-methylamino)methyl)-5-fluoro-8-hydroxy-5,6,7,8-tetrahydroquinoline-5-carboxamide] | < 50 | < 1000 |
| O=C(NCc1cccc(F)c1C(F)(F)F)[C@]1(F)CC[C@H](O)c2ncccc21 [Example 178, (58,8S)-5-fluoro-N-(3-fluoro-2-(trifluoromethyl)benzyl)-8-hydroxy-5,6,7,8-tetrahydroquinoline-5-carboxamide] | < 50 | < 1000 |
| O=C(NCc1ccc(F)c(F)c1Cl)[C@]1(F)CC[C@@](O)(CO)c2ncccc21 [Example 312, (5S,8S)-N-(2-chloro-3,4-difluorobenzyl)-5-fluoro-8-hydroxy-8-(hydroxymethyl)-5,6,7,8-tetrahydroquinoline-5-carboxamide] | < 50 | < 1000 |
| C[C@@]1(O)CC[C@@](F)(C(=O)NCc2ccc(Cl)cc2Cl)c2cccnc21 [Example 257, (5S,8R)-N-(2,4-dichlorobenzyl)-5-fluoro-8-hydroxy-8-methyl-5,6,7,8-tetrahydroquinoline-5-carboxamide] | 101 to 300 | < 1000 |
| O=C1CC[C@@](F)(C(=O)NCc2ccc(C(F)(F)F)cc2Cl)c2cccnc21 [Example 253, (S)-N-(2-chloro-4-(trifluoromethyl)benzyl)-5-fluoro-8-oxo-5,6,7,8-tetrahydroquinoline-5-carboxamide] | < 50 | < 1000 |
| Cc1cc(Cl)cc(Cl)c1CNC(=O)C1(F)CCC(=O)c2ncccc21 (stereo not drawn) [Example 12, N-(2,4-dichloro-6-methylbenzyl)-5-fluoro-8-oxo-5,6,7,8-tetrahydroquinoline-5-carboxamide] | < 50 | < 1000 |
| CN(CCO)C[C@]1(O)CC[C@@](F)(C(=O)NCc2ccc(F)cc2Cl)c2cccnc21 (relative stereo) [Example 57, (5S*,8R*)-N-(2-chloro-4-fluorobenzyl)-5-fluoro-8-hydroxy-8-(((2-hydroxyethyl)(meth-yl)amino)methyl)-5,6,7,8-tetrahydroquinoline-5-carboxamide] | < 50 | < 1000 |
| CO[C@H]1CC[C@@](F)(C(=O)NCc2ccc(C(F)(F)F)cc2Cl)c2cccnc21 [Example 338, (5S,8S)-N-(2-chloro-4-(trifluoromethyl)benzyl)-5-fluoro-8-methoxy-5,6,7,8-tetrahydroquinoline-5-carboxamide] | < 50 | < 1000 |
| O=C(NCc1c(F)cc(Cl)cc1Cl)[C@]1(F)CC[C@](O)(CO)c2ncccc21 [Example 311, (5S,8R)-N-(2,4-dichloro-6-fluorobenzyl)-5-fluoro-8-hydroxy-8-(hydroxymethyl)-5,6,7,8-tetrahydroquinoline-5-carboxamide] | 50 to 100 | < 1000 |
| O=C(NCc1ccc(Cl)cc1F)[C@]1(F)CC[C@@H](O)c2ncccc21 [Example 111, (5S,8R)-N-(4-chloro-2-fluorobenzyl)-5-fluoro-8-hydroxy-5,6,7,8-tetrahydroquinoline-5-carboxamide] | 301 to 1000 | < 1000 |
| O=C1CO[C@]2(CC[C@@](F)(C(=O)NCc3ccc(Cl)cc3Cl)c3cccnc32)CN1 [Example 295, (2R,5′S)-N-(2,4-dichlorobenzyl)-5′-fluoro-5-oxo-6′,7′-dihydro-5′H-spiro [morpholine-2,8′-quinoline]-5′-carboxamide] | < 50 | < 1000 |
| COC1(C)CN(C[C@]2(O)CC[C@@](F)(C(=O)NCc3ccc(F)cc3Cl)c3cccnc32)C1 (relative stereo) [Example 55, (5S*,8R*)-N-(2-chloro-4-fluorobenzyl)-5-fluoro-8-hydroxy-8-((3-methoxy-3-methylazetidin-1-yl)methyl)-5,6,7,8-tetra-hydroquinoline-5-carboxamide] | < 50 | < 1000 |
| Cc1ccc(CNC(=O)[C@]2(F)CC[C@H](O)c3ncccc32)c(Cl)c1 [Example 167, (5S,8S)-N-(2-chloro-4-methylbenzyl)-5-fluoro-8-hydroxy-5,6,7,8-tetrahydroquinoline-5-carboxamide] | < 50 | < 1000 |
| O=C(NCc1ccc(Cl)cc1Cl)[C@@H]1CC[C@@H](O)c2ncccc21 [Example 87, (5R,8R)-N-(2,4-dichloro-benzyl)-8-hydroxy-5,6,7,8-tetrahydroquinoline-5-carboxamide] | 50 to 100 | < 1000 |
